{"source": "patent US20180371076A1", "about": "“MATERNAL TH17 CELLS AND PSYCHIATRIC DISORDERS” (New York University, priority 2017, published 2018)", "key": {"IL-17Ra mRNA": {"tested_on": "IL-17Ra mRNA", "test": "IL-17Ra mRNA in fetal brain (real-time PCR, in situ hybridization)", "type": "in vivo, mouse", "conditions": "E14.5", "experimental": "In Situ Hybridization. E14.5 embryos from PBS or poly(I:C)-treated mothers were collected in ice-cold PBS and subsequently fixed in 4% paraformaldehyde for 4 h at 4° C. Isolated brains were dehydrated in 30% sucrose/PBS solution overnight, and then embedded in Tissue Tek O.C.T. compound (Sakura Finetek, Torrance, Calif.). The blocks were sectioned at 16-μm thickness using a cryostat (Leica). Fluorescent in situ hybridization was performed using a branched cDNA probe with amplification technology (ViewRNA ISH Tissue Assay kit, Panomics, Santa Clara) according to the manufacturer's protocol. […]\nReal-Time PCR Total RNA was extracted from the cerebral cortex of E14.5 fetal brain of male embryo (RNase plus mini kit, Qiagen) as well as from the decidua- and the placenta-derived mononuclear cells and reverse transcribed into cDNA using oligodT (ProtoScript first strand cDNA synthesis kit, NEB) according to the manufacturer's instructions. mRNA levels of target genes (il17ra, il17rc, il17a and il6) were quantified with a Real-Time PCR System (CFX connect Real-Time PCR, Bio-Rad) using fluorescent SYBR Green technology (Bio-Rad). […] Changes in relative gene expression normalized to gapdh or actin levels were determined using the relative threshold cycle method based on the Cont-PBS group. […]"}, "[1]": {"tested_on": "cortex of the fetal brain", "test": "Cortical development: SATB2/TBR1/CTIP2 immunohistochemistry of fetal and adult offspring brain", "type": "in vivo, mouse", "conditions": "offspring of MIA vs PBS-treated mothers"}, "IL-10": {"tested_on": "IL-10", "test": "IL-10 ELISA of maternal serum and placenta/decidua extracts", "type": "in vivo, mouse", "conditions": "poly(I:C) at E12.5", "experimental": "(§1) Cell preparation, Flow cytometry, ELISA. Embryos at each implantation site were dissected in ice-cold HBSS containing Ca^2+ and Mg^2+. Myometrium was first peeled off of the decidua and embryos were discarded. Dissected decidual and placental tissues were then minced and enzymatically dissociated in HBSS containing 0.28 Wunsch units (WU)/mL Liberase (Roche) and 30 μg/ml DNase I (Roche) for 30 min at 37° C. with intermittent mixing. Digested tissues were washed in PBS containing 5 mM EDTA and 5% fetal bovine serum and then incubated again in the same buffer for 15 min at 37° C. prior to filtration through a cell strainer. After separation on a discontinuous 40% & 80% Percoll gradient, the mononuclear cell fraction was treated with ACK lysis buffer (Lonza). Mononuclear cells (1×10^6 cells/mL) were stimulated with phorbol 12-myristate 13-acetate (PMA, 50 ng/mL; Sigma), ionomycin (500 ng/mL; Sigma) in T cell media: RPMI 1640 (Invitrogen) supplemented with 10% (v/v) heat-inactivated FBS (Hyclone), 50 U penicillin-streptomycin (Invitrogen), 2 mM glutamine, and 50 μM β-mercaptoethanol. Cell culture supernatant was used for ELISA analyses. For flow cytometry, cells were incubated for 5 h with PMA, ionomycin and GolgiStop (BD). […] For ELISA with sera and placenta/decidua extract, IL-6 (Ebioscience), IL-17a (Biolgened), and IL-10 (BD) were measured according to the manufacturer's protocol. […]"}, "IL-17a": {"tested_on": "IL-17a", "test": "IL-17a secretion by ex vivo cultured mononuclear cells (PMA/ionomycin)", "type": "cell-based, mouse", "conditions": "vs PBS", "experimental": "as §1"}}, "note": "Entries after “also recorded” stand apart in the source; their conditions may differ.", "data": [{"substance": "poly(I:C)", "values": [{"measurement": "IL-17Ra mRNA in fetal brain (real-time PCR)", "setting": "IL-17Ra mRNA; induction of MIA", "value": "strongly augmented"}, {"measurement": "IL-17Ra mRNA in fetal brain cortex (in situ hybridization)", "setting": "IL-17Ra mRNA; poly(I:C) injection of pregnant dams", "value": "strongly up-regulated"}, {"measurement": "cortical organization by Golgi staining", "setting": "[1]", "value": "disorganized cortical regions"}, {"measurement": "IL-10 in serum and placenta/decidua extracts", "setting": "IL-10", "value": "not affected; also recorded: did not affect"}, {"measurement": "IL-17a secretion by placenta/decidua-associated mononuclear cells", "setting": "IL-17a; cells from poly(I:C)-treated dams, ex vivo PMA and ionomycin", "value": "increased IL-17a secretion; also recorded: enhanced secretion of IL-17a"}, {"measurement": "IL-17a secretion by small intestine mononuclear cells", "setting": "IL-17a; cells from poly(I:C)-treated pregnant dams", "value": "did not exhibit higher levels of IL-17a secretion; also recorded: did not secrete more IL-17a"}]}]}
